In series [1] the test system is MRSA. Description: Antibacterial activity of flavonoids on MRSA (agar plate dilution method, MIC). In kind it is cell-based, Staphylococcus aureus. The following applies: Staphylococcus aureus, MRSA 20 strains, flavonoid alone. As for the experimental part:
(§1) MRSA were employed as bacteria to be tested. The antibacterial activity was determined according to the agar plate dilution method defined by Japan Society of Chemotherapy (Chemotherapy 29(1), 76-79(1981)). The employed plate medium for the measurement of sensitivity was semisynthetic medium based on Mueller-Hinton Agar, and the bacteria solution for seeding was prepared by incubating the test bacterium in Mueller-Hinton Broth at 37° C. for 20 hours, followed by diluting in 0.85% saline to give 10^6 CFU/mL. The test samples were produced in two times-serial dilution method. To this plate medium for the measurement of sensitivity, was seeded a bacteria solution with a Micro Planter® (Sakuma Seisakusho). After incubating at 37° C. for 20 hours, a minimum inhibitory concentration (MIC) was determined. […] In addition, MIC50 indicates a concentration yielding the proliferation inhibitory effect in 50% of total number of MRSA strains, whilst MIC90 indicates a concentration yielding the proliferation inhibitory effect in 90% of total number of MRSA strains.

Series [2] is described as follows: Dissolution of rutin (auxiliary effects of L-arginine hydrochloride and L-cysteine); solubility in water. In kind it is physicochemical. As for the experimental part:
To the solution B, is added 3.5 mL of the solution A. After adjusting the pH of the mixture to 8.5 with HCl, the mixture is filtered to give an injectable.

For series [3], the system named is penicillinase producing Staphylococcus aureus. Description: Effects of flavone in combination with benzylpenicillin or methicillin on penicillinase producing Staphylococcus aureus. It counts as cell-based. As for the experimental part:
as §1
The effects of flavone in combination with benzylpenicillin or methicillin on penicillinase producing Staphylococcus aureus are shown in Table 4.
Effects of Flavone in Combination with Benzylpenicillin or Methicillin on Penicillinase Producing Staphylococcus aureus.

Series [4] concerns MRSA. In words: Enhancement of the antibacterial activity of methicillin by various flavonoids on MRSA. In kind it is cell-based, Staphylococcus aureus. As for the experimental part: as §1
Antibacterial Activities of Methicillin on MRSA with 50 μg/mL of Various Flavonoids

Series [5] deals with MRSA. Description: Enhancement of the antibacterial activity of various antibiotics by flavone on MRSA. In kind it is cell-based, Staphylococcus aureus. The following applies: for MIC: Staphylococcus aureus, antibiotics alone; for MIC +flavone: addition of 50 μg/mL of flavone. On the procedure: as §1
Antibacterial Activities of Various β-Lactam Antibiotics on MRSA with 50 μg/mL of Flavone

The next series concerns MRSA infected mouse. In words: Antibacterial activity on MRSA infected mouse (survival rate after 5 days). It counts as in vivo. On the procedure:
MRSA was incubated with Brain-Heart Infusion medium at 37° C. for 18 hours, and then the bacteria were collected and washed, followed by resuspension in saline. The suspension was admixed in an aqueous 5% gastric mucin solution and the concentration was adjusted to a predetermined value. Then, 0.2 mL of the mixture was intraperitoneally administered to an ICR strain SPF mouse. At one hour after the infection, various concentrations of β-lactam agents and rutin (0.2 mL) was subcutaneously administered, and survival rate was analyzed after 5 days and thus the effectiveness was evaluated. In addition, the effectiveness by oral administration (0.2 mL) was evaluated and various concentrations of β-lactam agents and rutin (0.2 mL) were administered using a gastric probe 1 hour or 5 hours prior to the infection.

[6] abbreviates: antibiotic alone, 0.5 mg/mouse, after 5 days.
Setting [7] is: antibiotic alone, 1 mg/mouse, after 5 days.
Where [8] appears, read: antibiotic alone, 5 mg/mouse, after 5 days.
Where [9] appears, read: antibiotic alone, 10 mg/mouse, after 5 days.
Where [10] appears, read: antibiotic alone, 15 mg/mouse, after 5 days.
[11] abbreviates: oral, antibiotic 10 mg/mouse with rutin 5 mg/mouse.
[12] abbreviates: oral, antibiotic 10 mg/mouse with rutin 10 mg/mouse.
The mark [13] stands for this setting: oral, antibiotic 15 mg/mouse with rutin 5 mg/mouse.
Where [14] appears, read: oral, antibiotic 15 mg/mouse with rutin 10 mg/mouse.
Setting [15] is: subcutaneous, antibiotic 10 mg/mouse with rutin 5 mg/mouse.
Where [16] appears, read: subcutaneous, antibiotic 10 mg/mouse with rutin 10 mg/mouse.
[17] abbreviates: subcutaneous, antibiotic 15 mg/mouse with rutin 5 mg/mouse.
Where [18] appears, read: subcutaneous, antibiotic 15 mg/mouse with rutin 10 mg/mouse.

≈ marks a conversion by molar mass, not a printed value.

As usually defined, the MIC50 is an inhibitory concentration at the 50% level, which refers to growth in some studies and to a panel of isolates in others. As a reminder, the MIC90 is an inhibitory concentration at the 90% level, which refers to growth in some studies and to a panel of isolates in others. For the compound `O=c1cc(-c2ccccc2)oc2ccccc12` [flavone], in the series on MRSA [1] (read-out: MIC50), the MIC50 is 62.5 µg/mL (≈ 281 µM). In the series with MRSA [1] (read-out: MIC90), the MIC90 was 125 µg/mL (≈ 562 µM). The “solubility in water (in words)” value in series [2] was “insoluble in water”.
One may read the MIC as the least concentration at which growth counts as inhibited. Turning to `COc1cccc(OC)c1C(=O)N[C@@H]1C(=O)N2[C@@H]1SC(C)(C)[C@@H]2C(=O)O` [methicillin], the MIC in series [3] (antibiotic alone) turned out to be 0.98 µg/mL; with MRSA [4] (Staphylococcus aureus, methicillin alone), 1020 µg/mL; with MRSA [5], 1020 µg/mL. Further, in the series on MRSA [4] (methicillin alone), the MIC of methicillin was found to be 1024 µg/mL. In addition, the “MIC +flavone” value with MRSA [5] is 4 µg/mL.
Take `Oc1cc(O)c2c(c1)O[C@@H](c1cc(O)c(O)c(O)c1)[C@H](O)C2` [(−)-gallocatechin]: the MIC of methicillin with MRSA [4] (50 μg/mL of the named flavonoid added) is 2 µg/mL.
Take `CC(=O)OCC1=C(C(=O)O)N2C(=O)[C@@H](NC(=O)CSc3ccncc3)[C@H]2SC1` [cefapirin]: the survival rate turned out to be 20% with MRSA infected mouse (setting [6]); 20% in the series with MRSA infected mouse (setting [7]); 20% in the series on MRSA infected mouse (setting [8]); 20% in the series with MRSA infected mouse (setting [9]); 40% in the series with MRSA infected mouse (setting [10]); 40% in the series with MRSA infected mouse (setting [11]). In addition, the survival rate is 60% in the series on MRSA infected mouse (setting [12]); 60% in the series on MRSA infected mouse (setting [13]); 80% in the series with MRSA infected mouse (setting [14]); 0% in the series on MRSA infected mouse (setting [15]); 20% in the series with MRSA infected mouse (setting [16]); 80% in the series on MRSA infected mouse (setting [17]). The same compound had a survival rate with MRSA infected mouse (setting [18]) of 100%. In addition, in the series on MRSA [5], the MIC was 128 µg/mL. In the series with MRSA [5], the “MIC +flavone” value was below 0.016 µg/mL.
As to `Cc1onc(-c2ccccc2)c1C(=O)N[C@@H]1C(=O)N2[C@@H]1SC(C)(C)[C@@H]2C(=O)O` [oxacillin], the survival rate in the series on MRSA infected mouse (setting [6]) came out at 20%; in the series with MRSA infected mouse (setting [7]) it was 0%; in the series with MRSA infected mouse (setting [8]) it was 20%; with MRSA infected mouse (setting [9]), 20%; in the series on MRSA infected mouse (setting [10]) it was 0%; with MRSA infected mouse (setting [11]), 20%. In addition, the survival rate in the series on MRSA infected mouse (setting [12]) is 20%; in the series on MRSA infected mouse (setting [13]), 40%; in the series with MRSA infected mouse (setting [14]) it was 40%; in the series on MRSA infected mouse (oxacillin alone, all doses), at most 20%; with MRSA infected mouse (setting [15]) it was 40%; in the series on MRSA infected mouse (setting [16]) it was 80%. The survival rate in the series on MRSA infected mouse (setting [17]) and with MRSA infected mouse (setting [18]) was 60% throughout. The MIC in the series with MRSA [5] was 512 µg/mL. Besides, in the series on MRSA [5], the “MIC +flavone” value stood at 1 µg/mL.
By solubility is commonly meant the dissolved amount per volume that the medium holds. Low values mean little dissolved substance, high ones much dissolved substance. As to `C[C@@H]1O[C@@H](OC[C@H]2O[C@@H](Oc3c(-c4ccc(O)c(O)c4)oc4cc(O)cc(O)c4c3=O)[C@H](O)[C@@H](O)[C@@H]2O)[C@H](O)[C@H](O)[C@H]1O` [rutin], the solubility in series [2] (aqueous with cosolvent or surfactant or cyclodextrin, solution with 4 mmol L-arginine hydrochloride, 1 mmol L-cysteine, 8 mmol 1 N NaOH, adjusted to pH 8.5, precipitate removed) is 49.8 mg/mL (≈ 81600 µM). The survival rate in the series with MRSA infected mouse (rutin alone, oral, 1 mg/mouse) came to 20%; in the series with MRSA infected mouse (rutin alone, oral, 5 mg/mouse), 20%; with MRSA infected mouse (rutin alone, oral, 10 mg/mouse), 20%; in the series with MRSA infected mouse (rutin alone, oral, 15 mg/mouse), 40%; in the series on MRSA infected mouse (rutin alone, subcutaneous, 1 mg/mouse), 40%; in the series on MRSA infected mouse (rutin alone, subcutaneous, 5 mg/mouse) it was 40%. Also, the survival rate with MRSA infected mouse (rutin alone, subcutaneous, 10 mg/mouse) was determined as 20%; with MRSA infected mouse (rutin alone, subcutaneous, 15 mg/mouse), 40%.
For `CC1=C(C(=O)O)N2C(=O)[C@@H](NC(=O)[C@H](N)C3=CCC=CC3)[C@H]2SC1` [cefradine], in the series on MRSA [5], the minimal inhibitory concentration (MIC) is above 256 µg/mL and the “MIC +flavone” value stood at 1 µg/mL.
Regarding `CO/N=C(\C(=O)N[C@@H]1C(=O)N2C(C(=O)O)=C(COC(N)=O)CS[C@H]12)c1ccco1` [cefuroxime], in the series with MRSA [5], the MIC turned out to be 1020 µg/mL and the “MIC +flavone” value was found to be 512 µg/mL.
Taken in the same sequence, the figures for `CC1(C)S[C@@H]2[C@H](NC(=O)C(C(=O)O)c3ccccc3)C(=O)N2[C@H]1C(=O)O` (stereo partly shown) [carbenicillin] were above 256 µg/mL and 4 µg/mL.
Turning to `CC(=N)N1CC[C@H](SC2=C(C(=O)O)N3C(=O)[C@H]([C@@H](C)O)[C@H]3C2)C1` [panipenem], in the series with MRSA [5], the MIC stood at 64 µg/mL and the “MIC +flavone” value is 0.002 µg/mL.
As to `CC1(C)S[C@@H]2[C@H](NC(=O)Cc3ccccc3)C(=O)N2[C@H]1C(=O)O` [benzylpenicillin], the MIC in series [3] (+ flavone 50 μg/mL) was 0.39 µg/mL; in series [3] (antibiotic alone) it was 1.56 µg/mL; in the series on MRSA [5], 64 µg/mL. Further, the “MIC +flavone” value with MRSA [5] stood at 32 µg/mL.
